Laboratory results: US11400038B2, “Synergistic antioxidant compositions” (RODAN & FIELDS, LLC, priority 2019, dated 2022)

Legend:
[1] = tested on: Adult human fibroblasts; assay: Phototoxicity (PHTX): cell viability pre- and post-UVA irradiation by MTT assay (Test Method B); assay type: cell-based; settings: for cell metabolism versus solvent control, in words: UV-irradiation assay, individual antioxidants; for PHTX Results: phototoxicity: individual antioxidant
Description: The cell viability was measured by determining the cells metabolic activity with a MTT assay according to Test Method B, the results are presented in Table 5. An MTT assay is a colorimetric assay for assessing cell metabolic activity.
Adult human fibroblasts were grown to exponential stage in a 96-well plate in DMEM and 10% FBS in humidified atmosphere, 37° C. in 5% CO2. Prior to irradiation, half of cell culture medium was replaced with PBS, treated with 0.1% test material (diluted in double distilled water), and incubated for an additional 1 hour 45 minutes. Following incubation, half of the plate was irradiated with UVA lamp UVA-28T at 5 mW/cm2 for 12 minutes, and the other half remained covered with aluminum foil. Following irradiation, PBS with test materials was replaced by fresh cell culture medium and plate was incubated for an additional 24 hours. Cell viability was then analyzed via MTT assay to quantify metabolic activity.

[2] = tested on: UVA-induced Reactive Oxygen Species in Human Dermal Fibroblasts; assay: DCFH reactive oxygen species quantification in UVA-irradiated fibroblasts (Test Method C); assay type: cell-based; settings: individual antioxidant, + pro-oxidant
Description: Compositions of Ex1-Ex8 have been tested for reactive oxygen species quantification in UVA-irradiated human dermal fibroblasts. The quantification result is expressed as a percentage of the water control and determined by the Test Method C and resented in Table 6.
Adult human fibroblasts were grown in a 96 well plate in DMEM+5% FBS. At exponential growth stage, medium was replaced with PBS and cells were loaded with 10 μM DCFH-DA (2′-7′-Dichlorofluorescin diacetate). Cells were incubated for 15 minutes at 37° C., rinsed, and incubated with test materials at 1 mg/ml (0.1% w/w) for an additional 20 minutes. Following incubation, plate was irradiated at 5 mW/cm2 for 10 minutes. Measurements of DCF-originated fluorescence were taken before and after irradiation as, in the presence of free radicals, DCFH is oxidized to highly fluorescent DCF, which can be detected in living cells at ex/em 488/530 nm. Total insoluble proteins were quantified to determine effect of test materials on cell number and to standardize ROS signal to cell number using the following equation: [ΔROS signal (t10 min−t0)]\[cell number (background−corrected)]. Water was used as a negative control.

## O=C(/C=C/c1ccc(O)c(O)c1)O[C@H](Cc1ccc(O)c(O)c1)C(=O)O [Rosmarinic acid, (2R)-3-(3,4-dihydroxyphenyl)-2-{[(2E)-3-(3,4-dihydroxyphenyl)prop-2-enoyl]oxy}propanoic acid]
[1]
  cell metabolism versus solvent control, in words: lower cell metabolism than solvent control
  PHTX Results: phototoxicity: not phototoxic
[2]
  DCFH Results (intracellular antioxidant): radical activity: −52% radical

## C[C@@H]1O[C@@H](OC[C@H]2O[C@@H](Oc3c(-c4ccc(O)c(O)c4)oc4cc(O)cc(O)c4c3=O)[C@H](O)[C@@H](O)[C@@H]2O)[C@H](O)[C@H](O)[C@H]1O [Rutin, 2-(3,4-dihydroxyphenyl)-5,7-dihydroxy-3-[α-L-rhamnopyranosyl-(1→6)-β-D-glucopyranosyloxy]-4H-chromen-4-one]
[1]
  cell metabolism versus solvent control, in words: lower cell metabolism than solvent control
  PHTX Results: phototoxicity: not phototoxic
[2]
  DCFH Results (intracellular antioxidant): radical activity: No Activity
